Measured values as given in patent publication US20250154138A1, “Small Molecule IL-17A Modulators” (BeiGene, Ltd., priority 2022, published 2025).
Read-outs that look alike come from different tables or passages of the source.

Experiments:
[1] = system: IL-17-induced GROα secretion from HT-29 cells; experiment: GROα release assay in human colorectal adenocarcinoma epithelial cell (HT-29, ELISA); type: cell-based; settings: 10 ng/mL IL-17A, highest concentration 10 μM, read-out: Cellular assay HT29 cell/CXCL1 IC50
In short: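 HT-29 cells were exposed 48 h at 37°C to IL-17A (final 10 ng/mL) preincubated 15 min with compound (4-fold dilutions, top 10 μM). Secreted GROα was quantified by ELISA against a standard curve, and IC50 obtained by four-parameter fitting.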

[2] = molecular target: human IL-17A / human IL-17RA (Homo sapiens (Human), UniProt Q16552); experiment: Human IL-17A biochemical assay (HTRF, blocking of IL-17A binding to IL-17RA); settings: 0.4 nM IL-17A, 0.3 nM IL-17RA, max compound concentration 10 uM
Chain of human IL-17A / human IL-17RA (Q16552 24-155): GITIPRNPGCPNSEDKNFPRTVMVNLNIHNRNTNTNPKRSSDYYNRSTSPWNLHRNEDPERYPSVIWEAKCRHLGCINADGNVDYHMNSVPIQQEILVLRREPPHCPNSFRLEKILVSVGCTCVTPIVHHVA
In short: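 HTRF competition: 0.4 nM recombinant human IL-17A pre-incubated 3 h at room temperature with compound (top 10 uM, 2.7-fold, 10 points) in HEPES pH 7.5 buffer, then 0.3 nM IL-17RA added for 1 h, then anti-6His-Tb/anti-human IgG-XL665 detection for 1 h.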

Row | SMILES | IC50 ([1]; Homo sapiens, HT-29, 48 h) | IC50 [2] | IC50 ([1]; 48 hours)
1 | CC[C@@H]1CN(C2(C(=O)NC)Cc3ccc(NC(=O)[C@@H](NC(=O)c4ccnn4C)C4CCCCC4)cc3C2)C(=O)N1 (stereo partly drawn) [Example 19, N-((1S)-1-cyclohexyl-2-((2-((R)-4-ethyl-2-oxoimidazolidin-1-yl)-2-(methylcarbamoyl)-2,3-dihydro-1H-inden-5-yl)amino)-2-oxoethyl)-1-methyl-1H-pyrazole-5-carboxamide] | 262 nM | 60 nM | 
2 | CNC(=O)C1(N2C[C@@H](Cc3ccc(C)cc3)NC2=O)Cc2ccc(NC(=O)[C@@H](NC(=O)c3ccnn3C)C3CCCCC3)cc2C1 (stereo partly drawn) [Example 62, N-((1S)-1-cyclohexyl-2-((2-((R)-4-(4-methylbenzyl)-2-oxoimidazolidin-1-yl)-2-(methylcarbamoyl)-2,3-dihydro-1H-inden-5-yl)amino)-2-oxoethyl)-1-methyl-1H-pyrazole-5-carboxamide] | 212 nM | 24 nM | 
3 | CC[C@@H]1CN(C2(C(=O)NC)Cc3cc4nc([C@@H](NC(=O)c5ccnn5C)C5CCCCC5)[nH]c4cc3C2)C(=O)N1 [Example 31, 2-((S)-cyclohexyl(1-methyl-1H-pyrazole-5-carboxamido)methyl)-6-((R)-4-ethyl-2-oxoimidazolidin-1-yl)-N-methyl-1,5,6,7-tetrahydroindeno[5,6-d]imidazole-6-carboxamide] | 116 nM | 203 nM | 
4 | CNC(=O)C1(N2C[C@@H](C(C)C)NC2=O)Cc2ccc(NC(=O)[C@@H](NC(=O)Cc3ccccc3)C3CCCCC3)cc2C1 (stereo partly drawn) [Example 53, 5-((S)-2-cyclohexyl-2-(2-phenylacetamido)acetamido)-2-((R)-4-isopropyl-2-oxoimidazolidin-1-yl)-N-methyl-2,3-dihydro-1H-indene-2-carboxamide] | 735 nM | 223 nM | 
5 | CNC(=O)C1(N2CC3(CC3)CNC2=O)Cc2ccc(NC(=O)[C@@H](NC(=O)c3cccc(C#N)c3)C3CCCCC3)cc2C1 (stereo partly drawn) [Example 153, 5-((S)-2-(3-cyanobenzamido)-2-cyclohexylacetamido)-N-methyl-2-(6-oxo-5,7-diazaspiro[2.5]octan-5-yl)-2,3-dihydro-1H-indene-2-carboxamide] | 258 nM | 95 nM | 
6 | CC(C)[C@@H]1CN(C2(C(N)=O)Cc3ccc(NC(=O)[C@@H](NC(=O)c4ccnn4C)C4CCCCCC4)cc3C2)C(=O)N1 (stereo partly drawn) [Example 83, N-((1S)-2-((2-carbamoyl-2-((R)-4-isopropyl-2-oxoimidazolidin-1-yl)-2,3-dihydro-1H-inden-5-yl)amino)-1-cycloheptyl-2-oxoethyl)-1-methyl-1H-pyrazole-5-carboxamide] | 190 nM | 22 nM | 
7 | Cc1nonc1C(=O)N[C@H](C(=O)Nc1ccc2c(c1)CC(C1CCCC1)(N1CC3(CC3)CNC1=O)C2)C(C1CC1)C1CC1 (stereo partly drawn) [Example 230, N-((2S)-1-((2-cyclopentyl-2-(6-oxo-5,7-diazaspiro[2.5]octan-5-yl)-2,3-dihydro-1H-inden-5-yl)amino)-3,3-dicyclopropyl-1-oxopropan-2-yl)-4-methyl-1,2,5-oxadiazole-3-carboxamide] | 9470 nM | 4460 nM | 
8 | Cc1nonc1C(=O)N[C@H](C(=O)Nc1ccc2c(c1)CC(C(=O)Nc1cncs1)(N1CC3(CC3)CNC1=O)C2)C1CCC(F)(F)CC1 (stereo partly drawn) [Example 215, N-((1S)-1-(4,4-difluorocyclohexyl)-2-oxo-2-((2-(6-oxo-5,7-diazaspiro[2.5]octan-5-yl)-2-(thiazol-5-ylcarbamoyl)-2,3-dihydro-1H-inden-5-yl)amino)ethyl)-4-methyl-1,2,5-oxadiazole-3-carboxamide] | 134 nM | 33.6 nM | 
9 | Cc1nonc1C(=O)N[C@H](C(=O)Nc1ccc2c(c1)CC(C1C[C@@H](C(C)C)NC1=O)C2)C(C1CC1)C1CC1 (stereo partly drawn) [Example 211, N-((2S)-1,1-dicyclopropyl-3-((2-((5S)-5-isopropyl-2-oxopyrrolidin-3-yl)-2,3-dihydro-1H-inden-5-yl)amino)-3-oxopropan-2-yl)-4-methyl-1,2,5-oxadiazole-3-carboxamide] |  | 465 nM | 3680 nM
10 | CNC(=O)C1(N2C[C@@H](Cc3ccccc3)NC2=O)Cc2ccc(NC(=O)[C@@H](NC(=O)c3ccnn3C)C3CCCCC3)cc2C1 (stereo partly drawn) [Example 37, N-((1S)-2-((2-((R)-4-benzyl-2-oxoimidazolidin-1-yl)-2-(methylcarbamoyl)-2,3-dihydro-1H-inden-5-yl)amino)-1-cyclohexyl-2-oxoethyl)-1-methyl-1H-pyrazole-5-carboxamide] | 1480 nM | 112 nM | 
11 | CC(C)[C@@H]1CN(C2(C(=O)N[C@H](CO)C3CCCCC3)Cc3ccc(NC(=O)[C@@H](NC(=O)c4ccnn4C)C4CCCCC4)cc3C2)C(=O)N1 (stereo partly drawn) [Example 121, N-((1S)-1-cyclohexyl-2-((2-(((S)-1-cyclohexyl-2-hydroxyethyl)carbamoyl)-2-((R)-4-isopropyl-2-oxoimidazolidin-1-yl)-2,3-dihydro-1H-inden-5-yl)amino)-2-oxoethyl)-1-methyl-1H-pyrazole-5-carboxamide] | 32.3 nM | 16 nM | 
12 | CC[C@@H]1CN(C2(C(=O)NC)Cc3cc4nc([C@@H](NC(=O)c5nonc5C)C5CCCCC5)[nH]c4cc3C2)C(=O)N1 [Example 32, N-((1S)-cyclohexyl(6-((R)-4-ethyl-2-oxoimidazolidin-1-yl)-6-(methylcarbamoyl)-1,5,6,7-tetrahydroindeno[5,6-d]imidazol-2-yl)methyl)-4-methyl-1,2,5-oxadiazole-3-carboxamide] | 135 nM | 62 nM | 
13 | CC(C)[C@@H]1CN(C2(C(=O)Nc3ccccc3)Cc3ccc(NC(=O)[C@@H](NC(=O)c4ccnn4C(C)C)C(C4CC4)C4CC4)cc3C2)C(=O)N1 (stereo partly drawn) [Example 235, N-((2S)-1,1-dicyclopropyl-3-((2-((R)-4-isopropyl-2-oxoimidazolidin-1-yl)-2-(phenylcarbamoyl)-2,3-dihydro-1H-inden-5-yl)amino)-3-oxopropan-2-yl)-1-isopropyl-1H-pyrazole-5-carboxamide] | 214 nM | 229 nM | 
14 | Cc1nonc1C(=O)N[C@H](C(=O)Nc1ccc2c(c1)CC(C(C)C)(N1CC(C(F)(F)F)NC1=O)C2)C(C1CC1)C1CC1 (stereo partly drawn) [Example 212, N-((2S)-1,1-dicyclopropyl-3-((2-isopropyl-2-(2-oxo-4-(trifluoromethyl)imidazolidin-1-yl)-2,3-dihydro-1H-inden-5-yl)amino)-3-oxopropan-2-yl)-4-methyl-1,2,5-oxadiazole-3-carboxamide] | 1030 nM | 687 nM | 
15 | Cc1nonc1C(=O)N[C@H](C(=O)Nc1ccc2c(c1)CC(C(=O)Nc1cnccc1Cl)(N1C[C@@H](C(C)C)NC1=O)C2)C(C1CC1)C1CC1 (stereo partly drawn) [Example 274, N-((2S)-1-((2-((4-chloropyridin-3-yl)carbamoyl)-2-((R)-4-isopropyl-2-oxoimidazolidin-1-yl)-2,3-dihydro-1H-inden-5-yl)amino)-3,3-dicyclopropyl-1-oxopropan-2-yl)-4-methyl-1,2,5-oxadiazole-3-carboxamide] | 67.6 nM | 42.4 nM | 
16 | Cc1nonc1C(=O)N[C@H](C(=O)Nc1ccc2c(c1)CC(C(=O)Nc1ccccc1Cl)(N1C[C@@H](C(C)C)NC1=O)C2)C(C1CC1)C1CC1 (stereo partly drawn) [Example 263, N-((2S)-1-((2-((2-chlorophenyl)carbamoyl)-2-((R)-4-isopropyl-2-oxoimidazolidin-1-yl)-2,3-dihydro-1H-inden-5-yl)amino)-3,3-dicyclopropyl-1-oxopropan-2-yl)-4-methyl-1,2,5-oxadiazole-3-carboxamide] | 447 nM | 97.1 nM | 
